Test results taken from ChEMBL document CHEMBL1201862, “PubChem BioAssay data set” (2004).
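All cell lines were grown in 96-well plates and treated with compound for 48 hours. GI50: concentration for 50% inhibition of growth.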 Active and inactive are the calls of the source. No stated cut-off is given here; in the data, active = GI50 up to about 1.1 µM and inactive = higher.

Tests used:
Experiment in all cases: NCI anticancer screen, dose series, 48 h
SF-539 = test system: SF-539
Malme-3M = test system: Malme-3M
UO-31 = test system: UO-31
786-0 = test system: 786-0
EKVX = test system: EKVX
NCI-H460 = test system: NCI-H460
SF-268 = test system: SF-268
HOP-62 = test system: HOP-62
NCI-H226 = test system: NCI-H226
OVCAR-5 = test system: OVCAR-5
CAKI-1 = test system: CAKI-1
U-251 = test system: U-251
SK-OV-3 = test system: SK-OV-3
SK-MEL-5 = test system: SK-MEL-5
COLO 205 = test system: COLO 205
CCRF-CEM = test system: CCRF-CEM
NCI/ADR-RES = test system: NCI/ADR-RES
K562 = test system: K562
M14 = test system: M14
RXF 393 = test system: RXF 393

O=C1C2CC(Cl)C(SSC3CC4C(=O)N(SC(Cl)(Cl)C(Cl)Cl)C(=O)C4CC3Cl)CC2C(=O)N1SC(Cl)(Cl)C(Cl)Cl (stereo not given)
GI50 (SF-539): 2.32 µM (inactive) | GI50 (Malme-3M): 1.51 µM (inactive) | GI50 (UO-31): 1.94 µM (inactive) | GI50 (786-0): 1.56 µM (inactive) | GI50 (EKVX): 3.01 µM (inactive) | GI50 (NCI-H460): 2.39 µM (inactive) | GI50 (SF-268): 1.65 µM (inactive) | GI50 (HOP-62): 2.81 µM (inactive) | GI50 (NCI-H226): 3.67 µM (inactive) | GI50 (OVCAR-5): 17 µM (inactive) | GI50 (CAKI-1): 2.11 µM (inactive) | GI50 (U-251): 1.4 µM (inactive) | GI50 (SK-OV-3): 3.39 µM (inactive) | GI50 (SK-MEL-5): 1.97 µM (inactive) | GI50 (COLO 205): 1.78 µM (inactive) | GI50 (CCRF-CEM): 0.249 µM (active) | GI50 (NCI/ADR-RES): 2.06 µM (inactive) | GI50 (K562): 0.979 µM (active) | GI50 (M14): 1.21 µM (inactive) | GI50 (RXF 393): 1.33 µM (inactive)

COc1ccc2c[n+](C)c3c4cc(OC)c(OC)cc4ccc3c2c1
GI50 (SF-539): 10.7 µM (inactive) | GI50 (Malme-3M): 7.6 µM (inactive) | GI50 (UO-31): 44 µM (inactive) | GI50 (786-0): 2.39 µM (inactive) | GI50 (EKVX): 13.1 µM (inactive) | GI50 (NCI-H460): 3.91 µM (inactive) | GI50 (SF-268): 1.79 µM (inactive) | GI50 (HOP-62): 8.02 µM (inactive) | GI50 (NCI-H226): 15.5 µM (inactive) | GI50 (OVCAR-5): 8.63 µM (inactive) | GI50 (CAKI-1): 42.3 µM (inactive) | GI50 (U-251): 1.49 µM (inactive) | GI50 (SK-OV-3): 2.99 µM (inactive) | GI50 (SK-MEL-5): 14.7 µM (inactive) | GI50 (COLO 205): 0.776 µM (active) | GI50 (CCRF-CEM): 3.37 µM (inactive) | GI50 (NCI/ADR-RES): > 100 µM (inactive) | GI50 (K562): 2.43 µM (inactive) | GI50 (M14): 15.7 µM (inactive) | GI50 (RXF 393): 15.6 µM (inactive)

Clc1ccccc1-c1nn2c(CCCCCCCCc3nnc4sc(-c5ccccc5Cl)nn34)nnc2s1
GI50 (SF-539): > 100 µM (inactive) | GI50 (Malme-3M): > 100 µM (inactive) | GI50 (UO-31): > 100 µM (inactive) | GI50 (786-0): > 100 µM (inactive) | GI50 (EKVX): > 100 µM (inactive) | GI50 (NCI-H460): > 100 µM (inactive) | GI50 (SF-268): > 100 µM (inactive) | GI50 (HOP-62): > 100 µM (inactive) | GI50 (NCI-H226): > 100 µM (inactive) | GI50 (OVCAR-5): > 100 µM (inactive) | GI50 (CAKI-1): > 100 µM (inactive) | GI50 (U-251): > 100 µM (inactive) | GI50 (SK-OV-3): > 100 µM (inactive) | GI50 (SK-MEL-5): 63.1 µM (inactive) | GI50 (COLO 205): > 100 µM (inactive) | GI50 (CCRF-CEM): 61.7 µM (inactive) | GI50 (NCI/ADR-RES): > 100 µM (inactive) | GI50 (K562): > 100 µM (inactive) | GI50 (M14): > 100 µM (inactive) | GI50 (RXF 393): > 100 µM (inactive)
